# Assay results published in patent publication US6472391B2, “Nitrogen-containing heterocyclic compounds” (Millennium Pharmaceuticals, Inc., priority 1996, dated 2002).
# Where a name gives a salt, the structure may show the parent alone.
row,melting point [°C],Compound
1,240 to 241,"COc1cc2ncnc(N3CCN(C(=O)Nc4ccc(C)nc4)CC3)c2cc1OC [Compound 271, 4-(6,7-Dimethoxy-4-quinazolinyl)-N-(2-methyl-5-pyridyl)-1-piperazinecarboxamide]"
2,227 to 228,"COc1cc2cc(Cl)nc(N3CCN(C(=O)Nc4ccc([N+](=O)[O-])cc4)CC3)c2cc1OC [Compound 114, 4-(3-Chloro-6,7-dimethoxy-1-isoquinolyl)-N-(4-nitrophenyl)-1-piperazinecarboxamide]"
3,105 to 108,"O=C(Nc1ccc(Oc2ccccc2)cc1)N1CCN(c2ncnc3cc4ccccc4cc23)CC1 [Compound 363, 4-(4-Benzo[g]quinazolinyl)-N-(4-phenoxyphenyl)-1-piperazinecarboxamide]"
4,170 to 171,"COc1cc2ncnc(N3CCN(C(=S)NCC4CCCCC4)CC3)c2cc1OC [Compound 138, N-Cyclohexylmethyl-4-(6,7-dimethoxy-4-quinazolinyl)-1-piperazinethiocarboxamide]"
5,246 to 247,"N#Cc1ccc(NC(=O)N2CCN(c3ncnc4cc5c(cc34)OCCO5)CC2)cc1 [Compound 373, N-(4-Cyanophenyl)-4-(6,7-ethylenedioxy-4-quinazolinyl)-1-piperazinecarboxamide]"
6,187 to 188,"Cc1cccc2ncnc(N3CCN(C(=O)Nc4ccc(Oc5ccccc5)cc4)CC3)c12 [Compound 287, 4-(5-Methyl-4-quinazolinyl)-N-(4-phenoxyphenyl)-1-piperazinecarboxamide]"
7,207 to 208,"COc1cc2ncnc(N3CCN(C(=S)Nc4cccc(NC(C)=O)c4)CC3)c2cc1OC [Compound 226, N-(3-Acetamidophenyl)-4-(6,7-dimethoxy-4-quinazolinyl)-1-piperazinethiocarboxamide]"
8,220 to 222,"N#Cc1ccc(NC(=O)N2CCN(c3ncnc4cc5c(cc34)OCO5)CC2)cc1 [Compound 369, N-(4-Cyanophenyl)-4-(6,7-methylenedioxy-4-quinazolinyl)-1-piperazinecarboxamide]"
9,158 to 160,"COc1ccc2c(N3CCN(C(=S)NCc4ccccc4)CC3)ncnc2c1OC [Compound 384, N-Benzyl-4-(7,8-dimethoxy-4-quinazolinyl)-1-piperazinethiocarboxamide]"
10,187 to 188,"COc1ccc(NC(=O)N2CCN(c3ncnc4cc(OC)c(OC)cc34)CC2)c(OC)c1 [Compound 64, N-(2,4-Dimethoxyphenyl)-4-(6,7-dimethoxy-4-quinazolinyl)-1-piperazinecarboxamide]"
11,167 to 168,"COc1cc2ncnc(N3CCN(C(=O)NCc4ccccc4)CC3)c2cc1OC [Compound 3, N-Benzyl-4-(6,7-dimethoxy-4-quinazolinyl)-1-piperazinecarboxamide]"
12,242 to 244,"CCNc1cc2ncnc(N3CCN(C(=O)Nc4ccc(Oc5ccccc5)cc4)CC3)c2cc1[N+](=O)[O-] [Compound 109, 4-(7-Ethylamino-6-nitro-4-quinazolinyl)-N-(4-phenoxyphenyl)-1-piperazinecarboxamide]"
13,195 to 197,"COc1cc2ncnc(N3CCN(C(=O)NCc4ccc(C(F)(F)F)cc4)CC3)c2cc1OC [Compound 160, 4-(6,7-Dimethoxy-4-quinazolinyl)-N-(4-trifluoromethylbenzyl)-1-piperazinecarboxamide]"
14,174 to 176,"COc1ccc(NC(=S)N2CCN(c3ncnc4cc(OC)c(OC)cc34)CC2)cc1OC [Compound 66, N-(3,4-Dimethoxyphenyl)-4-(6,7-dimethoxy-4-quinazolinyl)-1-piperazinethiocarboxamide]"
15,147 to 148,"COc1cc2ncnc(N3CCN(C(=S)NC4CCOC4=O)CC3)c2cc1OC (stereo not shown) [Compound 279, 4-(6,7-Dimethoxy-4-quinazolinyl)-N-(2,3,4,5-tetrahydro-2-oxo-3-furyl)-1-piperazinethiocarboxamide]"
16,68 to 70,"S=C(NCc1ccccc1)N1CCN(c2ncnc3ccccc23)CC1 [Compound 285, N-Benzyl-4-(4-quinazolinyl)-1-piperazinethiocarboxamide]"
17,90 to 92,"CCOc1cc2ncnc(N3CCN(C(=S)NCc4cccnc4)CC3)c2cc1OCC [Compound 354, 4-(6,7-Diethoxy-4-quinazolinyl)-N-(3-picolyl)-1-piperazinethiocarboxamide]"
18,202 to 203,"O=C(Nc1ccc(Oc2ccccc2)cc1)N1CCN(c2nncc3ccccc23)CC1 [Compound 414, N-(4-Phenoxyphenyl)-4-(1-phthalazinyl)-1-piperazinecarboxamide]"
19,167 to 168,"CCn1nnc2cc3c(N4CCN(C(=O)Nc5ccc(Oc6ccccc6)cc5)CC4)ncnc3cc21 [Compound 124, 4-(3-Ethyl-3H-1,2,3-triazolo[4,5-g]quinazolin-8-yl)-N-(4-phenoxyphenyl)-1-piperazinecarboxamide]"
20,189 to 190,"COc1cc2ncnc(N3CCN(C(=O)N[C@H](C)c4ccccc4)CC3)c2cc1OC [Compound 128, (R)-4-(6,7-Dimethoxy-4-quinazolinyl)-N-(1-phenylethyl)-1-piperazinecarboxamide]"

row,melting point [°C],Compound
1,212 to 217,"COc1cc2ncnc(N3CCN(C(=S)Nc4ccc(F)cc4)CC3)c2cc1OC [Compound 37, 4-(6,7-Dimethoxy-4-quinazolinyl)-N-(4-fluorophenyl)-1-piperazinethiocarboxamide]"
2,197 to 198,"CCOc1cc2ncnc(N3CCN(C(=O)Nc4ccc(Oc5ccccc5)cc4)CC3)c2cc1F [Compound 332, 4-(7-Ethoxy-6-fluoro-4-quinazolinyl)-N-(4-phenoxyphenyl)-1-piperazinecarboxamide]"
3,216 to 222,"CCCCc1ccc(NC(=O)N2CCN(c3ncnc4cc(OC)c(OC)cc34)CC2)cc1 [Compound 20, N-(4-Butylphenyl)-4-(6,7-dimethoxy-4-quinazolinyl)-1-piperazinecarboxamide]"
4,207 to 211,"COc1cc2ncnc(N3CCN(C(=S)Nc4ccc5c(c4)OCO5)CC3)c2cc1OC [Compound 68, 4-(6,7-Dimethoxy-4-quinazolinyl)-N-(3,4-methylenedioxyphenyl)-1-piperazinethiocarboxamide]"
5,119 to 120,"Fc1cc2ncnc(N3CCN(C(=S)NCc4ccccc4)CC3)c2cc1F [Compound 330, N-Benzyl-4-(6,7-difluoro-4-quinazolinyl)-1-piperazinethiocarboxamide]"
6,205 to 206,"COc1cc2ncnc(N3CCN(C(=O)Nc4ccc(Cl)cc4[N+](=O)[O-])CC3)c2cc1OC [Compound 234, N-(4-Chloro-2-nitrophenyl)-4-(6,7-dimethoxy-4-quinazolinyl)-1-piperazinecarboxamide]"
7,230 to 232,"COc1cc2ncnc(N3CCN(C(=S)Nc4ccccc4)CC3)c2cc1OC [Compound 2, 4-(6,7-Dimethoxy-4-quinazolinyl)-N-phenyl-1-piperazinethiocarboxamide]"
8,208 to 209,COc1ccc2c(N3CCN(C(=S)NCc4cccnc4)CC3)ncnc2c1OC.Cl
9,174 to 178,"COc1cc2ncnc(N3CCN(C(=S)Nc4ccc(C(=O)NC5CCOC5=O)cc4)CC3)c2cc1OC (racemic) [Compound 92, (dl)-N-[4-(2,3,4,5-Tetrahydro-2-oxofuran-3-ylcarbamoyl)phenyl]-4-(6,7-dimethoxy-4-quinazolinyl)-1-piperazinethiocarboxamide]"
10,221 to 223,"CCN(CC)c1ccc(NC(=O)N2CCN(c3ncnc4cc(OC)c(OC)cc34)CC2)cc1 [Compound 225, N-(4-Diethylaminophenyl)-4-(6,7-dimethoxy-4-quinazolinyl)-1-piperazinecarboxamide]"
11,247 to 250,"O=C(Nc1ccc([N+](=O)[O-])cc1)N1CCN(c2ncnc3cc4c(cc23)OCO4)CC1 [Compound 368, 4-(6,7-Methylenedioxy-4-quinazolinyl)-N-(4-nitrophenyl)-1-piperazinecarboxamide]"
12,164 to 167,"COc1cc(OC)c2ncnc(N3CCN(C(=S)NCc4cccnc4)CC3)c2c1 (as salt: hydrochloride) [Compound 382, 4-(6,8-Dimethoxy-4-quinazolinyl)-N-(3-picolyl)-1-piperazinethiocarboxamide]"
13,144 to 146,"COc1cc2ncnc(N3CCN(C(=S)Nc4ccc(Sc5ccc([N+](=O)[O-])cc5)cc4)CC3)c2cc1OC [Compound 70, 4-(6,7-Dimethoxy-4-quinazolinyl)-N-[4-(4-nitrophenylthio)phenyl]-1-piperazinethiocarboxamide]"
14,75 to 79,"S=C(NCc1ccccc1)N1CCN(c2ccnc3ccccc23)CC1 [Compound 395, N-Benzyl-4-(4-quinolyl)-1-piperazinethiocarboxamide]"
15,208 to 210,"COc1cc2ncnc(N3CCN(C(=O)NC4CCCCC4)CC3)c2cc1OC [Compound 13, N-Cyclohexyl-4-(6,7-dimethoxy-4-quinazolinyl)-1-piperazinecarboxamide]"
16,169 to 170,"CCOc1cc2ncnc(N3CCN(C(=S)NCc4cccnc4)CC3)c2cc1OC [Compound 338, 4-(7-Ethoxy-6-methoxy-4-quinazolinyl)-N-(3-picolyl)-1-piperazinethiocarboxamide]"
17,241 to 245,"COc1cc2ncnc(N3CCN(C(=O)Nc4cccc(C(C)=O)c4)CC3)c2cc1OC [Compound 86, N-(3-Acetylphenyl)-4-(6,7-dimethoxy-4-quinazolinyl)-1-piperazinecarboxamide]"
18,202 to 204,"COc1cc2ncnc(N3CCN(C(=O)NCc4cnc(C)cn4)CC3)c2cc1OC [Compound 278, 4-(6,7-Dimethoxy-4-quinazolinyl)-N-(5-methyl-2-pyrazinylmethyl)-1-piperazinecarboxamide]"
19,251 to 252,"COc1cc2ncnc(N3CCN(C(=O)Nc4cc(C(F)(F)F)cc(C(F)(F)F)c4)CC3)c2cc1OC [Compound 32, N-[3,5-Bis(trifluoromethyl)phenyl]-4-(6,7-dimethoxy-4-quinazolinyl)-1-piperazinecarboxamide]"
20,68 to 70,"COc1ccc2ncnc(N3CCN(C(=S)NCc4ccccc4)CC3)c2c1 [Compound 309, N-Benzyl-4-(6-methoxy-4-quinazolinyl)-1-piperazinethiocarboxamide]"
